{"source": "patent US20100254922A1", "about": "“COSMETIC AND/OR DERMATOLOGICAL COMPOSITION BASED ON N,N'-[…] ACID ESTER(S)” (L'OREAL, priority 2008, published 2010)", "experiment": "Solubility test of the ester compound in test solvents", "format": "physicochemical", "experimental": "The solubility tests were performed with the diisopropyl ester of N,N′-bis(benzyl)ethylenediamine-N,N′-diacetic acid.\nThe test solvent was poured into a beaker, an amount of the ester compound was added with magnetic stirring and the mixture was left to stand for between 1 hour and 24 hours. The mixture was then heated to 50° C. and then cooled to room temperature (25° C.) over 24 hours. The system was then observed to see if the amount of the ester compound introduced recrystallized or remained dissolved.\nThe amount of ester compound that can be dissolved in the test solvent was determined in this manner. The maximum value corresponds to the amount at and above which the ester compound stops dissolving in the evaluated solvent."}
{"smiles": "CC(C)OC(=O)CN(CCN(CC(=O)OC(C)C)Cc1ccccc1)Cc1ccccc1", "note": "[diisopropyl ester of N,N′-bis(benzyl)ethylenediamine-N,N′-diacetic acid]", "values": [{"measurement": "Weight % of dissolved ester compound", "setting": "solvent: 2-Ethylhexyl salicylate, 25° C.", "value": 10, "unit": "Weight %"}, {"measurement": "Weight % of dissolved ester compound", "setting": "solvent: 2-Octyldodecanol, 25° C.", "value": 10, "unit": "Weight %"}, {"measurement": "Weight % of dissolved ester compound", "setting": "solvent: Apricot oil, 25° C.", "value": 12, "unit": "Weight %"}, {"measurement": "Weight % of dissolved ester compound", "setting": "solvent: Butylene glycol, 25° C.", "value": 1, "unit": "Weight %"}, {"measurement": "Weight % of dissolved ester compound", "setting": "solvent: Cyclohexasiloxane, 25° C.", "value": 4.7, "unit": "Weight %"}, {"measurement": "Weight % of dissolved ester compound", "setting": "solvent: Cyclopentasiloxane, 25° C.", "value": 4.5, "unit": "Weight %"}, {"measurement": "Weight % of dissolved ester compound", "setting": "solvent: Dimethyl isosorbide, 25° C.", "value": 38, "unit": "Weight %"}, {"measurement": "Weight % of dissolved ester compound", "setting": "solvent: Dipropylene glycol, 25° C.", "value": 10.7, "unit": "Weight %"}, {"measurement": "Weight % of dissolved ester compound", "setting": "solvent: Ethanol, 25° C.", "value": 8, "unit": "Weight %"}, {"measurement": "Weight % of dissolved ester compound", "setting": "solvent: Glycerol, 25° C.", "value": 1, "unit": "Weight %"}, {"measurement": "Weight % of dissolved ester compound", "setting": "solvent: Hexylene glycol, 25° C.", "value": 11.5, "unit": "Weight %"}, {"measurement": "Weight % of dissolved ester compound", "setting": "solvent: Hydrogenated isoparaffin (Parleam from NOF), 25° C.", "value": 9, "unit": "Weight %"}, {"measurement": "Weight % of dissolved ester compound", "setting": "solvent: Isononyl isononanoate, 25° C.", "value": 16, "unit": "Weight %"}, {"measurement": "Weight % of dissolved ester compound", "setting": "solvent: Isopropyl N-lauroylsarcosinate (Eldew SL-205 from Ajinomoto), 25° C.", "value": 18, "unit": "Weight %"}, {"measurement": "Weight % of dissolved ester compound", "setting": "solvent: Isopropyl myristate, 25° C.", "value": 11.5, "unit": "Weight %"}, {"measurement": "Weight % of dissolved ester compound", "setting": "solvent: Isopropyl palmitate, 25° C.", "value": 9, "unit": "Weight %"}, {"measurement": "Weight % of dissolved ester compound", "setting": "solvent: Phenyl trimethicone (Dow Corning 556), 25° C.", "value": 12, "unit": "Weight %"}, {"measurement": "Weight % of dissolved ester compound", "setting": "solvent: Propylene glycol, 25° C.", "value": 1, "unit": "Weight %"}, {"measurement": "Weight % of dissolved ester compound", "setting": "solvent: Squalane, 25° C.", "value": 9, "unit": "Weight %"}, {"measurement": "Weight % of dissolved ester compound", "setting": "solvent: Water, heated to 50° C., cooled to room temperature (25° C.) over 24 hours", "value": "Insoluble"}]}
